Source: publication PMC4706618, “Comparison of bactericidal and cytotoxic activities of trichogin analogs” (Data in Brief, 2015)
≈ marks a conversion by molar mass, not a printed value. Non-standard residues stand in square brackets, D forms with d. Residues, ends and D or L forms follow the SMILES beside them. *: point of attachment. Leu(ol) = CC(C)C[C@H](N)CO; Octanoyl = CCCCCCCC(=O)*; Aib = CC(C)(N)C(=O)O

Legend:
[1] = test system: S. aureus, ATCC BAA-44 (methicillin-resistant strain); type: cell-based, Staphylococcus aureus; conditions: ATCC BAA-44, 24 h
Procedure: (§1) E. coli ATCC 25922, the methicillin-resistant strain of S. aureus, ATCC BAA-44, P. aeruginosa ATCC 25668 and S. epidermidis ATCC 700565 was a kind gift of Prof. Elena Reddi (Dept. of Biology, University of Padova, Italy). Cultures were maintained in Luria Bertani (LB) agar. MICs (Minimal inhibitory concentrations) of the peptides were determined using the broth microdilution method. Two-fold serial dilutions of each peptide, from 1 to 64 μM, were prepared in LB and 50 μl per well were arranged in sterile 96-well plates (Falcon). Then, an aliquot of bacterial cell suspension was added to each well, at a final concentration of 5×10^5 CFU/ml.

[2] = test system: Gram^− and Gram^+ bacteria; test: Antibacterial activity, all strains taken together; type: cell-based; conditions: additional U at position 6 or U1 replaced with L; in words
Procedure: as §1

E. coli ATCC 25922 = type: cell-based, Escherichia coli; conditions: ATCC 25922, 24 h
Procedure: as §1

P. aeruginosa ATCC 25668 = type: cell-based, Pseudomonas aeruginosa; conditions: ATCC 25668, 24 h
Procedure: as §1

[3] = test system: S. epidermidis ATCC 700565; type: cell-based, Staphylococcus epidermidis; conditions: ATCC 700565, 24 h
Procedure: as §1

[4] = test system: human cells (lymphocytes, PMNs, monocytes, HL60, HeLa, A431, A549, CCD34Lu); test: Cytotoxicity on human cells, MTS reduction and LDH release; type: cell-based; conditions: 24 h, MTS/LDH EC50, all tested cells; in words
Procedure: (§2) To monitor the possible differential cytocidal effect of trichogin and its analogs on human cells (healthy and cancer cells, non-leukocytes and leukocytes), we incubated the peptides with (i) primary human leukocytes (lymphocytes, PMNs and monocytes), freshly isolated from blood of healthy donors (ii) the monocytes-like HL60 cell line from human myeloid leukemia, and (iii) three tumor-derived non-leukocyte cells lines: HeLa ([…]), A431 (human epidermoid carcinoma) and A549 (human lung carcinoma) and the in vitro stabilized line CCD34Lu (from human normal lung).
(§3) HeLa, A431 and CCD34-Lu cells were maintained in DMEM medium (Gibco), A549 in F12 medium (Gibco) and HL60 in RPMI medium (Gibco), supplemented with 10% FCS (Euroclone) and antibiotics (penicillin and streptomycin, 100 U/ml, Invitrogen) at 37 °C in a humidified atmosphere containing 5% (v/v) CO2; cells were split every 2–3 days. Human monocytes, polymorphonuclear leukocytes (PMNs) and lymphocytes were purified from buffy coats of healthy donors, kindly provided by the Centro Immunotrasfusionale, Hospital of Padova. Briefly, for monocyte purification, peripheral blood mononuclear cells (PBMC) were isolated from buffy coats of healthy donors by density gradient centrifugation on Ficoll-Paque Plus (GE Health care), which density is optimized for the isolation of mononuclear cells. Separate monocyte and T-cell fractions were obtained from PBMCs by Percoll density gradient centrifugation (GE Health care); residual lymphocytes were removed by incubation in 2% fetal calf serum (FCS) RPMI at 37 °C and subsequently washed to eliminate non adherent cells. Unless otherwise specified, cells were kept at 37 °C in a humidified atmosphere containing 5% (v/v) CO2 in RPMI-1640 supplemented with 10% FCS. For PMNs purification, the pellet of cells obtained after the centrifugation on Ficoll gradient was subjected to dextran erythrocytes precipitation; residual erythrocytes were removed by hypotonic lysis in 155 mM NH4Cl, 10 mM KHCO3, and […] Na2EDTA at pH 7.4 and cells were cultured in RPMI medium, supplemented with 10% FCS. For lymphocytes preparation, buffy coats were incubated with 50 μl/ml of Rosette Sep® Human T Cell Enrichment Cocktail (StemCell Technologies). Blood was then centrifuged over a Ficoll gradient and cells were cultured in RPMI medium, supplemented with 10% FCS.
(§4) Twenty-four hours before the experiment, A431, HeLa, A549 and CC34-Lu cells were detached by means of trypsin treatment (Gibco), counted and seeded onto a 96 wells/plate (8×10^3 cells/well, Falcon). After purification, monocytes were seeded onto a 96 wells/plate (2×10^6/well) and left to adhere to the plastic; then cells were immediately treated with stimuli. PMNs and lymphocytes (2×10^6 cells/well) and HL60 cells (40×10^3) were seeded onto cell plates and subsequently treated. Different peptides were diluted in culture medium (from 20 μM to 1 μM) and added to the cells. As a […] control cells were treated with medium without stimuli. Twenty-four hours after treatment, the cell supernatant was collected for subsequent assay (LDH assay) and cells were tested using a CellTiter 96® AQueous One Solution Reagent (Promega). Plates were read with an ELISA reader (Amersham Biosciences) at 492 nm. Data were expressed as % of absorbance value compared to untreated cells (assumed as 100% viable). Alternatively, the EC50 (the concentration of drug where 50% of cells died) was calculated for each peptide and each kind of tested cell.
(§5) 50 μl of the cell supernatant was tested with a CytoTox 96® Non-Radioactive Cytotoxicity Assay kit (Promega). EC50 (the concentration of drug that induced the lysis of 50% of the total cell number) was calculated for each peptide and each kind of tested cell.

[5] = as above; type: cell-based; conditions: human, from MTS and LDH EC50 values, compared with trichogin, all cell models, read-out: reduction of cytocidal effect / cell toxicity (% inhibition)
Procedure: as §2, §3, §4, §5

Row | Compound | MIC S. aureus [1] [µM] | MIC E. coli (E. coli ATCC 25922) [µM] | MIC P. aeruginosa (P. aeruginosa ATCC 25668) [µM] | MIC S. epidermis [3] [µM] | antibacterial activity compared with the K-containing analogs [2] | cytotoxicity compared with trichogin or the corresponding analog [4] | inhibition at 24 h [5] [%]
1 | CCCCCCCC(=O)NC(C)(C)C(=O)N[C@@H](CCCCN)C(=O)N[C@@H](CC(C)C)C(=O)NC(C)(C)C(=O)N[C@@H](CCCCN)C(=O)NC(C)(C)C(=O)N[C@@H](CC(C)C)C(=O)NC(C)(C)C(=O)N[C@@H](CCCCN)C(=O)N[C@H](C(=O)N[C@H](CO)CC(C)C)[C@@H](C)CC [K2K5K9U6] (Octanoyl-[Aib]KL[Aib]K[Aib]L[Aib]KI[Leu(ol)]) | 4 ± 0 (≈ 5.23 µg/mL) | 8 ± 0 (≈ 10.5 µg/mL) | 8 ± 0 (≈ 10.5 µg/mL) | 8 ± 0 (≈ 10.5 µg/mL) | failed to increase the antibacterial activity | increased cytotoxicity | –
2 | CCCCCCCC(=O)NC(C)(C)C(=O)NCC(=O)N[C@@H](CC(C)C)C(=O)NC(C)(C)C(=O)N[C@@H](CCCCN)C(=O)N[C@@H](CCCCN)C(=O)N[C@@H](CC(C)C)C(=O)NC(C)(C)C(=O)NCC(=O)N[C@H](C(=O)N[C@H](CO)CC(C)C)[C@@H](C)CC [K5K6] | 4 ± 0 (≈ 4.83 µg/mL) | 16 ± 0 (≈ 19.3 µg/mL) | 16 ± 0 (≈ 19.3 µg/mL) | 4 ± 1 (≈ 4.83 µg/mL) | – | – | 50 to 60

Second part, led by results:

Row | MIC S. aureus [1] [µM] | MIC E. coli (E. coli ATCC 25922) [µM] | MIC P. aeruginosa (P. aeruginosa ATCC 25668) [µM] | MIC S. epidermis [3] [µM] | Compound | antibacterial activity compared with the K-containing analogs [2] | cytotoxicity compared with trichogin or the corresponding analog [4] | inhibition at 24 h [5] [%]
3 | 4.3 ± 1.8 (≈ 5.5 µg/mL) | 14.9 ± 8.6 (≈ 19.1 µg/mL) | 13.3 ± 4.1 (≈ 17 µg/mL) | 4 ± 0.9 (≈ 5.12 µg/mL) | CCCCCCCC(=O)NC(C)(C)C(=O)N[C@@H](CCCCN)C(=O)N[C@@H](CC(C)C)C(=O)NC(C)(C)C(=O)N[C@@H](CCCCN)C(=O)NCC(=O)N[C@@H](CC(C)C)C(=O)NC(C)(C)C(=O)N[C@@H](CCCCN)C(=O)N[C@H](C(=O)N[C@H](CO)CC(C)C)[C@@H](C)CC [K2K5K9] (Octanoyl-[Aib]KL[Aib]KGL[Aib]KI[Leu(ol)]) | – | – | –
4 | 3.3 ± 1.3 (≈ 3.99 µg/mL) | 13.7 ± 3.9 (≈ 16.6 µg/mL) | 16 ± 5 (≈ 19.3 µg/mL) | 5 ± 2.4 (≈ 6.04 µg/mL) | CCCCCCCC(=O)NC(C)(C)C(=O)N[C@@H](CCCCN)C(=O)N[C@@H](CC(C)C)C(=O)NC(C)(C)C(=O)N[C@@H](CCCCN)C(=O)NCC(=O)N[C@@H](CC(C)C)C(=O)NC(C)(C)C(=O)NCC(=O)N[C@H](C(=O)N[C@H](CO)CC(C)C)[C@@H](C)CC [K2K5] (Octanoyl-[Aib]KL[Aib]KGL[Aib]GI[Leu(ol)]) | – | – | –
5 | 2.8 ± 1.1 (≈ 3.38 µg/mL) | 12.6 ± 4.3 (≈ 15.2 µg/mL) | 17.6 ± 8.8 (≈ 21.3 µg/mL) | 3.2 ± 2.6 (≈ 3.87 µg/mL) | CCCCCCCC(=O)NC(C)(C)C(=O)N[C@@H](CCCCN)C(=O)N[C@@H](CC(C)C)C(=O)NC(C)(C)C(=O)NCC(=O)N[C@@H](CCCCN)C(=O)N[C@@H](CC(C)C)C(=O)NC(C)(C)C(=O)NCC(=O)N[C@H](C(=O)N[C@H](CO)CC(C)C)[C@@H](C)CC [K2K6] (Octanoyl-[Aib]KL[Aib]GKL[Aib]GI[Leu(ol)]) | – | – | –
